Like-named read-outs stand apart in the source and are kept apart here.
Assays:
[1] = tested on: NTG-induced chronic migraine in mice; assay: PWT (von Frey), NTG-induced chronic migraine model, oral (Example 16)
Procedure: In particular, mice receive sublingual NTG 0.4 mg in the form of a finely crushed 0.4 mg NTG tablet (Greenstone Brand) every two days, receiving a total of five doses. For control mice, an NTG placebo (Practi-Nitroglycerin Sublingual 0.4 mg Simulated Medication tablet) was administered in the same way.
Group 1: placebo NTG (i.e, no NTG treatment, n=8) • 2. Group 2: NTG (n=8) • 3. Group 3: NTG+vehicle (n=8) • 4. […] Group 5: NTG+sulindac (n=8)
Mechanical allodynia was determined using von Frey filaments in line with that performed in the earlier Examples. The PWT test was performed prior to NTG (or placebo NTG) administration to determine baseline values, as indicated. […] The mechanical threshold, expressed as g, indicates the force of the von Frey filament to which the animal reacted.

[2] = Pharmacokinetics and biodistribution after topical PS 8% ointment to hind paws (Example 25); type: in vivo, mouse; conditions: all tissues except the sciatic nerve (higher) and DRG (equal)
Procedure: At 0.5, 1, 3, 5, 12, 18, and 24 h, mice (n=4-5 mice/time point) were euthanized with CO2 inhalation. Blood was drawn immediately after death. Tissues, including paw skin, paw muscle, leg muscle, the sciatic nerve and lumbar DRG bilaterally were dissected quickly, immediately frozen in liquid nitrogen and stored at −80° C. until analyzed.

[3] = tested on: STZ-induced central sensitization in Sprague-Dawley rats; assay: PWT (von Frey), streptozotocin rat model of central sensitization (Example 4); type: in vivo; conditions: 0.7% sulindac hydrogel 3 times a day for 1 week; 5% lidocaine cream once 30 min before; pregabalin 10 mg/kg orally once 1 h before
Procedure: Sprague-Dawley rats were fasted for 4-6 hours before being injected intraperitoneally with 45 mg/kg STZ. This was performed for all experimental groups, except the naive group. In order to prevent hypoglycaemic death, rats received 10% sucrose water as the sole water source for the first 48 hours after injection. In order to ensure only those rats considered diabetic (i.e., having non-fasting plasma glucose levels of >250 mg/dL) were included in the study, blood glucose was measured at 72 hours after the STZ injection.
Four weeks after STZ injection, the rats were randomised into treatment groups. This delay between STZ injection and treatment allows the establishment of chronic pain (allodynia) associated with central sensitization. […] 5% lidocaine cream (positive control) was applied only once to both hind paws of the rats 30 minutes before measurement of PWT.
The rats were split into 8 study groups, with those in the experimental groups (1-4) having an average body weight of about 225 g, and those in the control groups (5-8) having an average body weight of about 335 g, as follows: • 1. Group 1: naive rats (n=5) • 2. Group 2: STZ only (n=6) • 3. Group 3: STZ plus vehicle (n=6) • 4. […] Group 5: STZ plus oral vehicle (n=8) • 6. Group 6: STZ plus 0.7% sulindac hydrogel (n=7) • 7. Group 7: STZ plus 5% lidocaine cream (n=8) • 8.

[4] = Pharmacokinetics and biodistribution after 3% PS gel on outer surface of eyelid (Example 26); type: in vivo, rabbit; conditions: rabbits, 3% PS gel on outer surface of upper eyelids; for AUC(0-t): read-out: AUC0-24 h; for concentration at 0.5 h / concentration at 1 h / concentration at 2 h / concentration at 4 h / concentration at 8 h / concentration at 24 h: topical, read-out: Amount in tissue, Mean ± SEM
Procedure: The pharmacokinetics and biodistribution of 3% PS gel applied to the outer surface of both upper eyelids was studies in male New Zealand White rabbits.
Eyelid and tissues of the globe were dissected and frozen quickly in liquid nitrogen until the levels of PS and its metabolites were determined by HPLC as described Xie et al. (Br J Pharmacol (2012);165:2152-66).

[5] = tested on: paclitaxel-induced central sensitization in C57/BL/6J mice; conditions: day 14; PS hydrogel 5% or 0.7% sulindac 3 times a day; 5% lidocaine cream once 30 min before; pregabalin 10 mg/kg orally once 1 h before
Procedure: Regarding the treatment with lidocaine: 5% lidocaine cream (a positive control) was applied once to both hind paws of the mice 30 minutes before measurement of PWT.
Briefly, for mechanical allodynia, pain threshold responses were measured using the well-established method of von Frey filaments in line with that performed in the earlier Examples. The PWT test was performed on day-8 (before the first dose of paclitaxel), the day of starting treatment (day 0, at which central sensitization was fully established) and day 14 (treatment continued until day 15). The mechanical threshold, expressed as g, indicates the force of the von Frey filament to which the animal reacted.

[6] = tested on: NTG-induced migraine in C57BL/6J mice; assay: PWT (von Frey), NTG-induced migraine mouse model, topical (Example 13)
Procedure: Specifically, instead of the intraperitoneal injection of NTG, a finely crushed 0.4 mg NTG tablet (Greenstone Brand) was administered sublingually. As a control, a Practi-Nitroglycerin Sublingual 0.4 mg Simulated Medication tablet was used.
For determining mechanical allodynia, pain threshold responses were measured using the well-established method of von Frey filaments in line with that performed in the earlier Examples.
The PWT test, assessing mechanical allodynia, was performed 30 minutes after treatment. The mechanical threshold, expressed as g, indicates the force of the von Frey filament to which the animal reacted.

[7] = tested on: PHN induced by HSV-1 KOS strain virus in BALB/c mice; assay: PWT (von Frey), HSV-1 mouse model of PHN, topical (Example 20); type: in vivo; conditions: Post-inoculation and treatment, sulindac 5% gel on both hind paws three times a day for three days
Procedure: PHN was induced in mice by infecting them with the HSV-1 KOS strain virus and following established protocols (Ou et al, Front Immunol, 14, 1026269, 2023; Takasaki et al, Anesthesiology, 96(5), 1168-74, 2002).
; Reckitt Benckiser). Three days later, HSV-1 (10^6 PFUs in 20 μl PBS) was inoculated on the shin of the right hind paw (5×5 mm) after scarification with sandpaper. The virus was applied directly to the scarified area. The contralateral hind paw was without inoculation. Mock infection was performed using the same virus inactivated by heating at 60° C. for 1 h.
. Group 1: sham inoculated (n=5-7) • 2.
In a second experiment, the effect of the parent compound, sulindac, was tested in the same mouse model. Five days post-inoculation, sulindac (as a 5% gel), or vehicle control were administered topically onto both hind paws of mice three times a day for three days.
. Group 1: vehicle control (n=5-7) • 2. Group 2: sulindac 5% (n=5-7)

[8] = PS and metabolites in proximal and distal half of the sciatic nerve (Example 25); type: in vivo, mouse; conditions: sciatic nerve halves, 30 min after last dose
Procedure: In a separate experiment we studied 8 mice with paclitaxel-induced PN treated with PS 8% ointment 3×/d for 2 wks. Mice were euthanized as above 30 minutes after the last dose of PS. From these mice we harvested both sciatic nerves dividing each into proximal and distal halves, and combined the corresponding halves of every two animals for assay of drug levels.

[9] = male, New Zealand White, rabbit, topical or ocular, conjunctiva
[10] = male, New Zealand White, rabbit, topical or ocular, cornea
[11] = male, New Zealand White, rabbit, topical or ocular, eyelid
[12] = male, New Zealand White, rabbit, AH (aqueous humor)
[13] = male, New Zealand White, rabbit, conjunctiva
[14] = male, New Zealand White, rabbit, cornea
[15] = male, New Zealand White, rabbit, eyelid
[16] = male, New Zealand White, rabbit, vitreous

Q: With `CC1=C(CC(=O)O)c2cc(F)ccc2/C1=C\c1ccc([S+](C)[O-])cc1` (centres unmarked) [sulindac] as the compound, how does the “PWT, g Mean ± SEM” value ([1]; Baseline, prior to NTG administration) read?
A: 1.80 ± 0.12 g

Q: And the “PWT, g Mean ± SEM” value ([1]; Day 11, orally once a day for 11 days concurrent with NTG, PS 50 mg/kg, sulindac 33 mg/kg)?
A: 0.43 ± 0.03 g

Q: What about the “sulindac levels relative to those of PS” value [2] of the same compound?
A: around 25%

Q: And the “PWT, gm Mean ± SEM” value [3]?
A: 23.2 ± 2.6 gm

Q: And the Tmax ([4]; eyelid)?
A: 1 h

Q: What about the Cmax [4, 9] of the same compound?
A: 800 nM

Q: And the AUC(0-t) [4, 9]?
A: 2.5 ± 0.3 µM·h

Q: And the Tmax ([4]; male, New Zealand White, rabbit, topical or ocular, conjunctiva, read-out: TMax)?
A: 8 h

Q: What about the Cmax [4, 10] of the same compound?
A: 600 nM

Q: What about the half-life [4, 10] of the same compound?
A: 7.4 h

Q: What about the AUC(0-t) [4, 10] of the same compound?
A: 2.4 ± 0.5 µM·h

Q: What about the Cmax [4, 11] of the same compound?
A: 3600 nM

Q: And the half-life [4, 11]?
A: 1.1 h

Q: And the AUC(0-t) [4, 11]?
A: 5.5 ± 0.8 µM·h

Q: And the concentration at 0.5 h [4, 12]?
A: 0 nM

Q: And the concentration at 1 h [4, 12]?
A: 0 nM

Q: And the concentration at 2 h [4, 12]?
A: 0 nM

Q: What about the concentration at 4 h [4, 12] of the same compound?
A: 0 nM

Q: And the concentration at 8 h [4, 12]?
A: 0 nM

Q: What about the concentration at 24 h [4, 12] of the same compound?
A: 0 nM

Q: What about the concentration at 0.5 h [4, 13] of the same compound?
A: 100 ± 100 nM

Q: What about the concentration at 1 h [4, 13] of the same compound?
A: 200 ± 100 nM

Q: What about the concentration at 2 h [4, 13] of the same compound?
A: 0 nM

Q: What about the concentration at 4 h [4, 13] of the same compound?
A: 100 ± 100 nM

Q: And the concentration at 8 h [4, 13]?
A: 800 ± 500 nM

Q: What about the concentration at 24 h [4, 13] of the same compound?
A: 0 nM

Q: And the concentration at 0.5 h [4, 14]?
A: 400 ± 200 nM

Q: What about the concentration at 1 h [4, 14] of the same compound?
A: 600 ± 100 nM

Q: What about the concentration at 2 h [4, 14] of the same compound?
A: 0 nM

Q: And the concentration at 4 h [4, 14]?
A: 300 ± 100 nM

Q: What about the concentration at 8 h [4, 14] of the same compound?
A: 200 ± 200 nM

Q: What about the concentration at 24 h [4, 14] of the same compound?
A: 0 nM

Q: And the concentration at 0.5 h [4, 15]?
A: 1000 ± 100 nM

Q: And the concentration at 1 h [4, 15]?
A: 3600 ± 1200 nM

Q: And the concentration at 2 h [4, 15]?
A: 0 nM

Q: What about the concentration at 4 h [4, 15] of the same compound?
A: 500 ± 200 nM

Q: And the concentration at 8 h [4, 15]?
A: 0 nM

Q: And the concentration at 24 h [4, 15]?
A: 0 nM

Q: And the concentration at 0.5 h [4, 16]?
A: 0 nM

Q: What about the concentration at 1 h [4, 16] of the same compound?
A: 0 nM

Q: And the concentration at 2 h [4, 16]?
A: 0 nM

Q: What about the concentration at 4 h [4, 16] of the same compound?
A: 0 nM

Q: What about the concentration at 8 h [4, 16] of the same compound?
A: 0 nM

Q: What about the concentration at 24 h [4, 16] of the same compound?
A: 0 nM

Q: And the “PWT, g Mean ± SEM” value [5]?
A: 0.62 ± 0.05 g

Q: And the “PWT Post-treatment Mean ± SEM” value ([6]; 30 min after treatment, PS 8% gel or sulindac 5.3% (in DMSO) on both hind paws 30 min after NTG)?
A: 0.55 ± 0.02 g

Q: And the “PWT Baseline Mean ± SEM” value ([6]; baseline of the group, before NTG and treatment)?
A: 1.43 ± 0.15 g

Q: What about the “PWT, g Mean ± SEM” value [7] of the same compound?
A: 0.56 ± 0.06 g

Q: And the “PWT, g Mean ± SEM” value ([7]; listed as Sulindac)?
A: 0.56 ± 0.06 g

Q: What about the “Fold difference (distal vs proximal)” value [8] of the same compound?
A: 8.5 fold
